Laboratory results reported in PMC11088877, “AMP-activated protein kinase can be allosterically activated by ADP but AMP remains the key activating ligand” (Biochemical Journal, 2024).
Where “and” joins values, the source holds several entries; their conditions need not be identical. Equal values may be shown once.

Experiments:
[1] = biological target: T1, human α2β2γ1 complex, CBS4 mutant (I312G) (Homo sapiens, UniProt P54619+P54646, I312G); assay: Allosteric activation of CBS4 mutant human α2β2γ1 AMPK complex; type: biochemical; conditions: for Activation (maximal) / IC50 / EC50 / IC50/EC50: α2β2γ1 CBS4 mutant
T1 construct: made in house; host or cells: Escherichia coli
Description: To study allosteric activation with a more well-defined AMPK complex, and to study the effects of mutations in individual adenine nucleotide-binding sites on the γ subunit, we expressed a human α2β2γ1 complex in Escherichia coli and purified it utilizing the polyhistidine tag at the N-terminus of the α2 subunit. […] However, it had not been co-expressed with an N-myristoyl transferase so would not have been N-myristoylated on the β2 subunit. The complex was expressed not only with the WT γ1 sequence but also with mutations affecting hydrophobic residues previously shown to be involved in binding of the adenine moieties of nucleotides at CBS1 (L129D/V130D), CBS3 (V276G/L277G) and CBS4 (I312G). All four complexes co-purified as heterotrimeric 1:1:1 complexes as expected, and were phosphorylated and activated equally well either by CaMKK2 or the LKB1: STRADα:MO25α complex (Supplementary Figure S2). For the studies described below we phosphorylated Thr172 using a GST-tagged CaMKK2 and repurified AMPK using size exclusion chromatography and a glutathione-Sepharose column, which remove CaMKK2.
Figure 4. Allosteric activation of WT and mutant human α2β2γ1 AMPK complex by AMP and ADP at three different concentrations of ATP. The α2β2γ1 complex was phosphorylated on Thr172 prior to assay using CaMKK2. The γ1 subunit was either (A/E): WT; (B/F): a CBS1 mutant (L129D/V130D); (C/G): a CBS3 mutant (V276G/L277G); (D/H): a CBS4 mutant (I312G). Results are means of duplicate assays ± SD; error bars are not shown if they were smaller than the symbols used for mean values. Assays and curve fitting were as in Figure 1 at either 0.2 mM (left panels) or 5 mM (right panels) ATP. Best-fit values for all parameters used to generate the curves are listed in Supplementary Table S1.
(§1) Sources of antibodies were as described: pThr172 (AMPK-α: Cell Signaling Technologies, Danvers, MA, U.S.A., Cat# 2535), AMPK-α2 [22]. Rat liver AMPK was purified as described previously. Plasmid encoding human (His)6-tagged AMPK (α2β2γ1, bacterially expressed) generated as in [23], was a gift from AstraZeneca, Cambridge, U.K. The L129D/V130D (CBS1), V276G/L277G (CBS3) and I312G (CBS4) mutations in the α2β2γ1 complex were generated using the Quikchange II site-directed mutagenesis kit (Agilent Technologies) and confirmed by DNA sequencing. Human GST-tagged α2 kinase domain (1–310), LKB1:STRAD-α:MO25-α complexes, GST-tagged CaMKK2 [26], and PPM1A (PP2Cα) were produced as described. Bacterially expressed heterotrimers were activated by phosphorylation of Thr172 by GST-tagged CaMKK2 in the presence of ATP, and CaMKK2 was subsequently removed by passage through glutathione-Sepharose. Human GST-tagged α2 kinase domain was activated in a similar manner except that human (His)6-tagged LKB1:STRAD-α:MO25-α complex was used and removed after activation via passage through a His-Trap column. Recombinant human 5′-nucleotidase, CD73, Cat # 5795-EN-01, was from R&D systems (Minneapolis, MN, U.S.A.).
(§2) AMPK assays measured the transfer of radioactivity from [γ-^33P]ATP to a peptide substrate, which was separated from unreacted ATP by binding to P81 paper. This assay was described previously except that we used [γ-^33P] rather than [γ-^32P]ATP. In some assays (specified in Figure legends) the concentration of ATP was increased from 0.2 to 1 or 5 mM ATP, with MgCl2 concentrations maintained at a constant 4.8 mM excess above the concentration of ATP [19]. Where allosteric activation by AMP or ADP was being studied, we used the SAMS peptide as substrate. For all other assays the AMARA peptide was used.

[2] = biological target: T2, GST-tagged human α2 kinase domain (Homo sapiens, UniProt P54646); assay: Inhibition of GST:α2-kinase domain fusion by AMP or ADP; type: biochemical; conditions: for Activation / IC50: α2 kinase domain
T2 construct: Human GST-tagged α2 kinase domain (1–310); made in house
Description: To confirm that the inhibition of kinase activity by ADP at high concentrations was due to competition with ATP at the catalytic site on the α subunit, we repeated the assays using a glutathione-S-transferase- (GST-) tagged human α2 kinase domain that had been phosphorylated by LKB1. […] These IC50 values were similar to those obtained with the intact heterotrimers from rat liver (Supplementary Table S1).
Figure 3. Inhibition of GST:α2-kinase domain fusion by AMP or ADP. The kinase domain (phosphorylated on Thr172 by the LKB1:STRADα:MO25α complex) was incubated with various concentrations of AMP or ADP as in Figure 1 using [ATP] at 0.2 (A), 1.0 (B) or 5.0 mM (C) and keeping [Mg^2+] in a constant excess of 4.8 mM above [ATP] [19]. Results (mean ± SD, n = 2) were fitted to the equation: Y = Basal-(Basal × X)/(IC50 + X) where Y is the kinase activity, X is the concentration of AMP or ADP, and IC50 is the concentration of AMP or ADP causing half-maximal inhibition. Dashed vertical lines show the estimates of IC50 values, and best-fit values of all parameters used to generate the curves are listed in Supplementary Table S1.
as §1, §2

T1 sequence (P54619 whole entry I312G): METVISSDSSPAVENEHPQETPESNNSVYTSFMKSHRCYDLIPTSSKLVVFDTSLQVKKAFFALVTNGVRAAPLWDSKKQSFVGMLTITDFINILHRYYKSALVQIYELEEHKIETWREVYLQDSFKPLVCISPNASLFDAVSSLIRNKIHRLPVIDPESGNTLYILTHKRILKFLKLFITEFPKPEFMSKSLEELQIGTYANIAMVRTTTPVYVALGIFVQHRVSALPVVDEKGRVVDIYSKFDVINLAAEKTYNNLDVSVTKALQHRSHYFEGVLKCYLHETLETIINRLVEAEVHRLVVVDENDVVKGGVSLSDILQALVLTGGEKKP
T1 sequence (P54646 whole entry): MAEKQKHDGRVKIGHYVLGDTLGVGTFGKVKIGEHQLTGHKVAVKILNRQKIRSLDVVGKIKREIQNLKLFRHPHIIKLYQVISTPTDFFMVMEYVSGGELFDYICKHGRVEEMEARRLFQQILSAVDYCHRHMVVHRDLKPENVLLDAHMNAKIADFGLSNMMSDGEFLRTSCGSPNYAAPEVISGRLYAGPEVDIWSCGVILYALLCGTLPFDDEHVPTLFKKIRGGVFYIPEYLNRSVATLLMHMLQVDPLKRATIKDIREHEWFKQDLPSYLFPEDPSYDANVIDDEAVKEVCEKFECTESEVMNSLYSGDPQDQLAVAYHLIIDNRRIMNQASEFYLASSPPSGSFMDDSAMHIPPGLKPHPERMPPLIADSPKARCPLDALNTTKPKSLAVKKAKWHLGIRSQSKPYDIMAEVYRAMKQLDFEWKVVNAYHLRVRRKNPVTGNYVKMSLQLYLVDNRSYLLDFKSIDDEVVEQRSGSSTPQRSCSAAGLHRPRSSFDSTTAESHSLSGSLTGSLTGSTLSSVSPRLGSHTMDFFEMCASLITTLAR
T1 sequence (O43741 whole entry partner): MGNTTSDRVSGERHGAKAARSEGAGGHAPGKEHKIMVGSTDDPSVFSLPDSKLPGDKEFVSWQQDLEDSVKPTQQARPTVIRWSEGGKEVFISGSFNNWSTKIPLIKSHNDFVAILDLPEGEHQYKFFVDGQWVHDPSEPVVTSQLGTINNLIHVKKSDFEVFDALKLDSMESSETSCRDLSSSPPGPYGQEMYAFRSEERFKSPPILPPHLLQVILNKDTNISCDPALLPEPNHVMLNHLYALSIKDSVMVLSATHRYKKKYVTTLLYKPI
T2 sequence (P54646 1-310): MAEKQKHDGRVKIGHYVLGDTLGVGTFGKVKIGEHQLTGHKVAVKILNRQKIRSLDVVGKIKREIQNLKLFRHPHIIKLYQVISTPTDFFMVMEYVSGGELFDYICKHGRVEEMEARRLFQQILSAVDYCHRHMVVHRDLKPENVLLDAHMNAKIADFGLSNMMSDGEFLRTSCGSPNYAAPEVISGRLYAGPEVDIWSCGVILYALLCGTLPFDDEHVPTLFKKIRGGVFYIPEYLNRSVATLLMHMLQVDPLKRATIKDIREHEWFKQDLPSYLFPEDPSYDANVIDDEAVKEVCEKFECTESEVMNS

Compound	Activation (maximal) ([1]; 0.2 mM ATP)	IC50 ([1]; 0.2 mM ATP) [mM]	Activation (maximal) ([1]; 5.0 mM ATP)	IC50 ([1]; 5.0 mM ATP) [mM]	Activation ([2]; 0.2 mM ATP)	IC50 ([2]; 0.2 mM ATP) [mM]	Activation ([2]; 1.0 mM ATP)	IC50 ([2]; 1.0 mM ATP) [mM]	Activation ([2]; 5.0 mM ATP)	IC50 ([2]; 5.0 mM ATP)	increase of EC50 for activation relative to WT ([1]; α2β2γ1 CBS4 mutant vs WT, 0.2 mM ATP) [fold]	increase of EC50 relative to WT ([1]; α2β2γ1 CBS4 mutant vs WT, 5 mM ATP)	EC50 ([1]; 0.2 mM ATP) [mM]	IC50/EC50 ([1]; 0.2 mM ATP)	EC50 ([1]; 5.0 mM ATP) [mM]	IC50/EC50 ([1]; 5.0 mM ATP)	IC50 of AMP relative to IC50 of ADP ([2]; GST-α2 kinase domain, 0.2 to 5 mM ATP) [fold]
Nc1ncnc2c1ncn2[C@@H]1O[C@H](COP(=O)(O)OP(=O)(O)O)[C@@H](O)[C@H]1O [ADP]	did not cause allosteric activation and none	0.78	essentially abolished allosteric activation and none	31	none	0.67	none	1.6	none	3.5 mM							
Nc1ncnc2c1ncn2[C@@H]1O[C@H](COP(=O)(O)O)[C@@H](O)[C@H]1O [AMP]	2.1 fold and 2.1 (2.0-2.1) fold	3.3	2.0- to 2.5 fold and 2.1 (1.9-2.4) fold	28	none	2.2	none	5.4	none	13 mM and 13.4 mM	40	10- to 20 fold	0.038	87	0.28	100	~3
